Laboratory results taken from patent US20090221653A1, “7-(2-amino-1-hydroxy-ethyl)-4-hydroxybenzothiazol-2(3H)-one-derivatives as beta2 adrenoreceptor agonists” (AstraZeneca AB, priority 2005, published 2009).
Structures can show the parent of a compound that is named as a salt.

Tests used:
[1] = molecular target: T1, β2 receptor (Homo sapiens, UniProt P07550); test: Adrenergic β2 mediated cAMP production in H292 cells (AlphaScreen cAMP detection); format: cell-based; conditions: for EC50: cAMP, test compounds incubated 10 minutes, 300 μM rolipram; for Intrinsic Activity: fraction relative to the maximum activity determined for formoterol, 10 minutes incubation
T1 construct: endogenous in cells; host or cells: H292 cells
Method: H292 cells were grown in RPMI (Roswell Park Memorial Institute) medium containing, 10% (v/v) FBS (foetal bovine serum) and 2 mM L-glutamine. Cells were grown in 225 cm2 flasks containing 25 mL media in a humidified incubator at 37° C., 5% CO2. Cells were harvested from the flask and passaged at a 1 in 10 dilution once per week.
The media from flasks containing H292 cells was removed, rinsed with 10 mL PBS (phosphate buffered saline) and replaced with 10 mL Accutase™ cell detachment solution. Flasks were incubated for 15 minutes in a humidified incubator at 37° C., 5% CO2. The cell suspension was counted and the cells re-suspended in RPMI media (containing 10% (v/v) FBS and 2 mM L-glutamine) at 0.05×10^6 cells per mL. 5000 cells in 100 μL were added to each well of a tissue-culture-treated 96-well plate and the cells incubated overnight in a humidified incubator at 37° C., 5% CO2. The culture media was removed, washed twice with 100 μL assay buffer and replaced with 50 μL assay buffer. Cells were rested at room temperature for 20 minutes after which time 25 μL of rolipram (1.2 mM made up in assay buffer containing 2.4% (v/v) dimethylsulphoxide) was added. Cells were incubated with rolipram for 10 minutes after which time test compounds (made up as ×4 concentrated stocks in assay buffer containing 4% (v/v) dimethylsulphoxide) were added and the cells were incubated for 10 minutes at room temperature. Final rolipram concentration in the assay was 300 μM and final vehicle concentration was 1.6% (v/v) dimethylsulphoxide. The reaction was stopped by removing supernatants, washing once with 100 μL assay buffer and replacing with 50 μL lysis buffer. The cell monolayer was frozen at −80° C. for 30 minutes (or overnight).
The concentration of cAMP (cyclic adenosine monophosphate) in the cell lysate was determined using the AlphaScreen™ methodology. The frozen cell plate was thawed for 20 minutes on a plate shaker then 10 μL of the cell lysate was transferred to a 96-well white plate. 40 μL of mixed AlphaScreen™ detection beads (containing equal volumes of donor beads (pre-incubated with biotinylated cAMP in the dark for 30 minutes) and acceptor beads), was added to each well and the plate incubated at room temperature for 10 hours in the dark. The AlphaScreen™ signal was measured using an EnVision spectrophotometer (Perkin-Elmer Inc.) with the recommended manufacturer's settings. cAMP concentrations were determined by reference to a calibration curve determined in the same experiment using standard cAMP concentrations (made up in lysis buffer in a 96-well tissue-culture-treated plate and frozen/thawed alongside the test samples) and detected using the same protocol. Concentration response curves for agonists were constructed to determine both the pEC50 and Intrinsic Activity.

[2] = molecular target: T2, recombinant human α1D receptor (Homo sapiens, UniProt P25100); test: Adrenergic α1D selectivity assay, inhibition of [3H]-prazosin binding; conditions: HEK293 membranes, [3H]-prazosin 0.3 nM; read-out: α1 bind pIC50 (converted)
T2 construct: expressed in transfected cells; host or cells: HEK293
T2 sequence (P25100 1-572): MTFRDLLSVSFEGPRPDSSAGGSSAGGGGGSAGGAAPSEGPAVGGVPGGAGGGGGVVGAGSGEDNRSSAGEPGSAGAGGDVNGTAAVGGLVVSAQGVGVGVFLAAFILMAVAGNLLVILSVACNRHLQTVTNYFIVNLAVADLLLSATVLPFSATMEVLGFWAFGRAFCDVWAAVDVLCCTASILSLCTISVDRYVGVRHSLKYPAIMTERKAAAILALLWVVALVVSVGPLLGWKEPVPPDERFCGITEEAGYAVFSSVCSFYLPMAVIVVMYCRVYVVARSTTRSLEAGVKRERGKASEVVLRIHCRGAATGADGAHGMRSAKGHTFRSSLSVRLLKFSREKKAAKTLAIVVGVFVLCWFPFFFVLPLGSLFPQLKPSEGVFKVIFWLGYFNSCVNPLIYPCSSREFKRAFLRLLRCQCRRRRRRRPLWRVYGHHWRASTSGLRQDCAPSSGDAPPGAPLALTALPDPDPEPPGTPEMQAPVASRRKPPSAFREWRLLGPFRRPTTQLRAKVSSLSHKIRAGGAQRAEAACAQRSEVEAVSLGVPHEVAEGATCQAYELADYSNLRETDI
Method: Membranes were prepared from human embryonic kidney 293 (HEK293) cells expressing recombinant human α1D receptor. These were diluted in Assay Buffer (50 mM HEPES, 1 mM EDTA, 0.1% gelatin, pH 7.4) to provide a final concentration of membranes that gave a clear window between maximum and minimum specific binding.
(§1) Assays were performed in U-bottomed 96-well polypropylene plates. 10 μL [^3H]-prazosin (0.3 nM final concentration) and 10 μL of test compound (10× final concentration) were added to each test well. For each assay plate 8 replicates were obtained for [^3H]-prazosin binding in the presence of 10 μL vehicle (10% (v/v) DMSO in Assay Buffer; defining maximum binding) or 10 μL BMY7378 (10 μM final concentration; defining non-specific binding (NSB)). Membranes were then added to achieve a final volume of 100 μL. The plates were incubated for 2 hours at room temperature and then filtered onto PEI coated GF/B filter plates, pre-soaked for 1 hour in Assay Buffer, using a 96-well plate Tomtec cell harvester. Five washes with 250 μL wash buffer (50 mM HEPES, 1 mM EDTA, pH 7.4) were performed at 4° C. to remove unbound radioactivity. The plates were dried then sealed from underneath using Packard plate sealers and MicroScint-O (50 μL) was added to each well. The plates were sealed (TopSeal A) and filter-bound radioactivity was measured with a scintillation counter (TopCount, Packard BioScience) using a 3-minute counting protocol.
(§2) Total specific binding (B0) was determined by subtracting the mean NSB from the mean maximum binding. NSB values were also subtracted from values from all other wells.

[3] = molecular target: T3, recombinant human adrenergic beta 1 receptors (Homo sapiens, UniProt P08588); test: Adrenergic β1 selectivity assay, inhibition of [125I]-Iodocyanopindolol binding; conditions: membranes, [125I]-Iodocyanopindolol; read-out: β1 bind pIC50 (converted)
T3 construct: purchased Euroscreen
Method: Membranes containing recombinant human adrenergic beta 1 receptors were obtained from Euroscreen. These were diluted in Assay Buffer (50 mM HEPES, 1 mM EDTA, 120 mM NaCl, 0.1% gelatin, pH 7.4) to provide a final concentration of membranes that gave a clear window between maximum and minimum specific binding.
as §1, with “10 μL [^3H]-prazosin (0.3 nM final concentration) and 10 μL of test compound (10× final concentration) were added to each test well. For each assay plate 8 replicates were obtained for [^3H]-prazosin binding in the presence of 10 μL vehicle (10% (v/v) DMSO in Assay Buffer; defining maximum binding) or 10 μL BMY7378 (10 μM final concentration; defining non-specific binding (NSB)).” left out, “EDTA, 120 mM NaCl,” for “EDTA,”
as §2

T1 sequence (P07550 whole entry): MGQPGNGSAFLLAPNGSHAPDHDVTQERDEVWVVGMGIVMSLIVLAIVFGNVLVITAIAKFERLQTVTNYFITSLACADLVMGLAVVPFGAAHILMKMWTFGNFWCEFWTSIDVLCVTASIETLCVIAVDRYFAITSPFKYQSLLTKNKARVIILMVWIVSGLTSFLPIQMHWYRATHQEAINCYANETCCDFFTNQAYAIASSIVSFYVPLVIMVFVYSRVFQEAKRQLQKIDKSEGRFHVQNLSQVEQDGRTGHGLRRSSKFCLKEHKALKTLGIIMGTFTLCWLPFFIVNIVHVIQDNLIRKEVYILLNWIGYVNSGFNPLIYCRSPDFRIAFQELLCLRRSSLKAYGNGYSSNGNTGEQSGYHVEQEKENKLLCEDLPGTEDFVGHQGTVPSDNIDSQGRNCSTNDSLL
T3 sequence (P08588 whole entry): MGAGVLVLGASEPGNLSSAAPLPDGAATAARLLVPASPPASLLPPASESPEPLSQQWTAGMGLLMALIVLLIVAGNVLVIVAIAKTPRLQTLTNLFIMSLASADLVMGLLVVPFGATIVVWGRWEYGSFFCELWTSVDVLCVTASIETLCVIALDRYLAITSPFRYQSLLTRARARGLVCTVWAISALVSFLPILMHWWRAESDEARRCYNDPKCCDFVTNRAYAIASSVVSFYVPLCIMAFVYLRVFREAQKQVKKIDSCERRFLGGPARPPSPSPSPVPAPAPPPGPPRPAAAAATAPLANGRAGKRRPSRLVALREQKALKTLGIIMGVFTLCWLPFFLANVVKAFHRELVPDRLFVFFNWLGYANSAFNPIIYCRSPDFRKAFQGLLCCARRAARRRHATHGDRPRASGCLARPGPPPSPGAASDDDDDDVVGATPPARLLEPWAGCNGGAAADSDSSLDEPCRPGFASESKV

EC50 [1] [µM] | Intrinsic Activity [1] | IC50 [2] [µM] | IC50 [3] [µM] | Structure (SMILES)
0.000158 | 1.0 | 1 | 0.0158 | O=c1[nH]c2c(O)ccc([C@@H](O)CNCCCS(=O)(=O)CCOCCc3cccc4ccccc34)c2s1 [Example 2, 4-Hydroxy-7-((1R)-1-hydroxy-2-{[3-({2-[2-(1-naphthyl)ethoxy]ethyl}sulfonyl)propyl]-amino}ethyl)-1,3-benzothiazol-2(3H)-one trifluoroacetate]
0.0001 | 0.9 | 0.2 | 0.126 | Cl.O=c1[nH]c2c(O)ccc([C@@H](O)CNCCSCCOCCc3cccc4ccccc34)c2s1 [Example 4, 4-Hydroxy-7-((1R)-1-hydroxy-2-{[2-({2-[2-(1-naphthyl)ethoxy]ethyl}thio)ethyl]-amino}ethyl)-1,3-benzothiazol-2(3H)-one hydrochloride]
